The source of these data is patent US8933056B2, “Soft protease inhibitors and pro-soft forms thereof” (Trustees of Tufts College, priority 2005, dated 2015).

Data set [1] can be described thus: Inactivation at pH 7.8 followed by 1H NMR. It is filed as physicochemical. The following applies: sodium phosphate buffer; pH jump from pH 2 to pH 7.8, 1H NMR integrals fit to single exponential; read-out: half-life for the inactivation reaction.
Data set [2] deals with T1, DPPIV (Homo sapiens (Human), UniProt P27487). The data set can be described thus: physchem. The following applies: pH 7.8. On the procedure:
DPP IV inhibition was measured at various times after the pH jump and the IC50 values were plotted as a function of time. […] This value was fit to a single exponential.

Data set [3] concerns the target T1, DPPIV. Kind of data set: DPIV inhibition assay (Examples 2 and 3). It is filed as biochemical. The note with it: for DPPIV Ratio: IC50 pH 7.8 to pH 2. On the procedure: (§1) The inhibitor solution is prepared by dissolving 3-5 mg of inhibitor in pH 2 solution (0.01 N HCl), such that the concentration of the solution is equal to 1 mg/10 mL. A 10 μL sample of this solution is then added to 990 μL of pH 8 buffer (0.1 M HEPES, 0.14 M NaCl), and the solution is allowed to stand at room temperature overnight.
(§2) The substrate solution is prepared by dissolving 2.0 mg of L-alanyl-L-proline-para-nitroanilide into 20 mL of pH 8 buffer.
(§3) 250 μL of enzyme solution is added to well #B1 to #H1, #A2 to #H2, and #A3 to #H3 of a 96 well plate, while well #A1 receives 250 μL of pH 8 buffer instead of enzyme solution.
(§4) A 1:10 dilution is then performed by adding inhibitor solution to #A5 and the solution is mixed well before transferring 10 μL of this solution from #A5 to #B5. The solution in #B5 is then mixed well before transferring 10 μL of this solution from #B5 to #C5. The solution in #C5 is then mixed well before transferring 10 μL of this solution from #C5 to #D5. The solution in #D5 is then mixed well before transferring 10 μL of this solution from #D5 to #E5. The solution in #E5 is then mixed well before transferring 10 μL of this solution from #E5 to #F5. The solution in #F5 is then mixed well before transferring 10 μL of this solution from #F5 to #G5. The solution in #G5 is then mixed well before transferring 10 μL of this solution from #G5 to #H5.
(§5) A 30 μL aliquot is then transferred from #H5 to #H3 for row H, and the contents are mixed well. The analogous procedure is repeated for rows G, F, E, D, C, B, and A sequentially. The plate is then shaken on a plate shaker for 5 min before allowing the plate to incubate at room temperature for an additional 5 min.
(§6) Once the plate has been allowed to incubate, 30 μL of substrate is added to each well except well #A1. […] The absorbance is then immediately read at a wavelength of 410 nm.
(§7) In this example, the assay is conducted for DPIV and DP8 or DP9. The ratio of IC50 values for each tested compound is calculated in order to determine the selectivity for the DPIV isoform. […]

A further data set addresses DP8 (Homo sapiens (Human), UniProt Q6V1X1). The data set can be described thus: Selectivity for dipeptidyl peptidase isoforms, DP8. It is filed as biochemical. The following applies: for DP8 Ratio: IC50 pH 7.8 to pH 2. On the procedure:
as §1, §2, §3, §4, §5, §6, §7

For another data set, the target named is DP9 (Homo sapiens (Human), UniProt Q86TI2). Kind of data set: Selectivity for dipeptidyl peptidase isoforms, DP9. The following applies: for DP9 Ratio: IC50 pH 7.8 to pH 2. It is filed as biochemical. How it is done:
as §1, §2, §3, §4, §5, §6, §7

The next data set concerns the target DP-IV (Sus scrofa (Pig), UniProt P22411). Kind of data set: DPP IV inhibition: thioxamide v. oxoamide. It is filed as biochemical, porcine. The note with it: for Inactivation Index: IC50 pH 8.0 to pH 2.0. On the procedure: The inhibitory activity of a compound may be tested easily. […] A compound is then screened for its ability to inhibit the protease activity of DP-IV with respect to a […] substrate. […] Briefly, a reaction containing 50 micromol sodium Hepes (pH 7.8), 10 micromol Ala-Pro-p-nitroanilide, 6 milliunits of DP-IV, and 2% (vol/vol) dimethylformamide in a total volume of 1.0 mL. The reaction was initiated by the addition of enzyme and reaction rates were measured at 25 C; formation of reaction product (para-nitroanilide) in the presence and absence of a test compound can be detected photometrically, e.g., at 410 nm.

[4] abbreviates: pH 2, read-out: IC50s DPPIV pH 2.
[5] abbreviates: pH 7.8, read-out: IC50s DPPIV pH 7.8.
[6] abbreviates: pH 7.8, read-out: IC50s DP8 pH 7.8.
[7] abbreviates: pH 7.8, read-out: IC50s DP9 pH 7.8.
Where [8] appears, read: pH 2.0, read-out: IC50 (pH 2.0).
Setting [9] is: pH 8.0, read-out: IC50 (pH 8.0).

Read-outs that look alike come from different tables or passages of the source.

DP9, sequence (Q86TI2 whole entry, species assumed, canonical isoform): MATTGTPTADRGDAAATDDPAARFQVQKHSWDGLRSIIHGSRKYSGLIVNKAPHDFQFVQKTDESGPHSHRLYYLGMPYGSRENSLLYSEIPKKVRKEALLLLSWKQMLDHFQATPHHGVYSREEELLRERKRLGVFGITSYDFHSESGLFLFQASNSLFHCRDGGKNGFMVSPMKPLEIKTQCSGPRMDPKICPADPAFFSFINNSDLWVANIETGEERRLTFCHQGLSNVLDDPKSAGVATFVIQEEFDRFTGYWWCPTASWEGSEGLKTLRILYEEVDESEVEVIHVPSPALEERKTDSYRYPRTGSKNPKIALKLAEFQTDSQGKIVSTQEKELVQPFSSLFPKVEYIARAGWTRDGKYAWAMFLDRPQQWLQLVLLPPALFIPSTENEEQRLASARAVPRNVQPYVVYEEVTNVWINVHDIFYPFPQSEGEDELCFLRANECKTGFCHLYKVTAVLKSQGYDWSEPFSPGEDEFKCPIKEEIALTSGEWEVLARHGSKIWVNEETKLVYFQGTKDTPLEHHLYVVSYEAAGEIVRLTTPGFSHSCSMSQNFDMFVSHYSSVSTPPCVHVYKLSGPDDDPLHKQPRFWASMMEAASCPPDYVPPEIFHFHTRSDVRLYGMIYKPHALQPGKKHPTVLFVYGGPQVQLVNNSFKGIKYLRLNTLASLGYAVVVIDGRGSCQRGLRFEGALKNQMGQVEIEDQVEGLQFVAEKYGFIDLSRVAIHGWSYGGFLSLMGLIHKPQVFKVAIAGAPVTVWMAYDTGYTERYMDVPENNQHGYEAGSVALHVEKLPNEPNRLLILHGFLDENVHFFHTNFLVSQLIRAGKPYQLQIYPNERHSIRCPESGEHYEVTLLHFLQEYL
DP8, sequence (Q6V1X1 whole entry, species assumed, canonical isoform): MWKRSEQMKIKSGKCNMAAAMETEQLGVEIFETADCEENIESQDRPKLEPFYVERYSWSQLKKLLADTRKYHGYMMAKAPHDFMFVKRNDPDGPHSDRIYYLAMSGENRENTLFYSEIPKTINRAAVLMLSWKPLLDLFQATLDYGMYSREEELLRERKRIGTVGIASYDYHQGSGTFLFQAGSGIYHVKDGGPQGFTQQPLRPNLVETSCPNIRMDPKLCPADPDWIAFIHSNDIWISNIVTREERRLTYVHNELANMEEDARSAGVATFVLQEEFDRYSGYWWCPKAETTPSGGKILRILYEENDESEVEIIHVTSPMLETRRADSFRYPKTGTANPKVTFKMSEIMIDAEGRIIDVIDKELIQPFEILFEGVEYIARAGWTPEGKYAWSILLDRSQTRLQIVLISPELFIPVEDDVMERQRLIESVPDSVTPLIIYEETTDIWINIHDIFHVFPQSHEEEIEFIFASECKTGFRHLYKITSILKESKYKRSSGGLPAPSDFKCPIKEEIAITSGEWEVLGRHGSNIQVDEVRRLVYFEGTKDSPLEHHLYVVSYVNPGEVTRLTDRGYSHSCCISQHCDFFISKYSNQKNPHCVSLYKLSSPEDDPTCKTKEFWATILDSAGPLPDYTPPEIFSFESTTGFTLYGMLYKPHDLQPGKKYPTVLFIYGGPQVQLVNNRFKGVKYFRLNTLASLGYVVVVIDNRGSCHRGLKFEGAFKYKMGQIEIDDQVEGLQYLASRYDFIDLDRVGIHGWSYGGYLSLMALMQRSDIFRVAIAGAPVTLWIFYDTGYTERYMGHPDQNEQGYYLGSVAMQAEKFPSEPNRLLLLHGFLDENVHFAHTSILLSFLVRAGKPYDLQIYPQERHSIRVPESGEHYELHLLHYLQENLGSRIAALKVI
DP-IV, sequence (P22411 whole entry): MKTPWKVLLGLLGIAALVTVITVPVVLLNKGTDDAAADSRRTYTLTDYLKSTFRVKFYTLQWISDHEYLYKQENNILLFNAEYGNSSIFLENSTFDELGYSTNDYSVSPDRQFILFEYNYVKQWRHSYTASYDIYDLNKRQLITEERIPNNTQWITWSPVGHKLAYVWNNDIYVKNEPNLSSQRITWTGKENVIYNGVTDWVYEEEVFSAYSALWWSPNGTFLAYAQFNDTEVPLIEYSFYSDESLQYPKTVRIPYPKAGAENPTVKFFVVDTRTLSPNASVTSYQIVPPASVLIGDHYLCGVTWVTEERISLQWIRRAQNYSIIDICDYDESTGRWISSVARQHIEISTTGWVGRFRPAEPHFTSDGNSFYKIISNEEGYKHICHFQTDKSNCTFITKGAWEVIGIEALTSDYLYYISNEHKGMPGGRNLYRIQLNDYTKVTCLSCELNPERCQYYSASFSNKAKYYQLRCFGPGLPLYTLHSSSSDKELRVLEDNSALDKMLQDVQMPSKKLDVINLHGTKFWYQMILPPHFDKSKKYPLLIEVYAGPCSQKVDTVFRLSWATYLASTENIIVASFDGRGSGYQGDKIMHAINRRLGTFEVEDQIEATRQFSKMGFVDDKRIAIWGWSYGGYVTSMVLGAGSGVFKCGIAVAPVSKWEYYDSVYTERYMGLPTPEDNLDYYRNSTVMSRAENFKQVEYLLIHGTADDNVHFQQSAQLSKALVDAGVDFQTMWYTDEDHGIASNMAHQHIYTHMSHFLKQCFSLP
T1 sequence (P27487 whole entry, species assumed): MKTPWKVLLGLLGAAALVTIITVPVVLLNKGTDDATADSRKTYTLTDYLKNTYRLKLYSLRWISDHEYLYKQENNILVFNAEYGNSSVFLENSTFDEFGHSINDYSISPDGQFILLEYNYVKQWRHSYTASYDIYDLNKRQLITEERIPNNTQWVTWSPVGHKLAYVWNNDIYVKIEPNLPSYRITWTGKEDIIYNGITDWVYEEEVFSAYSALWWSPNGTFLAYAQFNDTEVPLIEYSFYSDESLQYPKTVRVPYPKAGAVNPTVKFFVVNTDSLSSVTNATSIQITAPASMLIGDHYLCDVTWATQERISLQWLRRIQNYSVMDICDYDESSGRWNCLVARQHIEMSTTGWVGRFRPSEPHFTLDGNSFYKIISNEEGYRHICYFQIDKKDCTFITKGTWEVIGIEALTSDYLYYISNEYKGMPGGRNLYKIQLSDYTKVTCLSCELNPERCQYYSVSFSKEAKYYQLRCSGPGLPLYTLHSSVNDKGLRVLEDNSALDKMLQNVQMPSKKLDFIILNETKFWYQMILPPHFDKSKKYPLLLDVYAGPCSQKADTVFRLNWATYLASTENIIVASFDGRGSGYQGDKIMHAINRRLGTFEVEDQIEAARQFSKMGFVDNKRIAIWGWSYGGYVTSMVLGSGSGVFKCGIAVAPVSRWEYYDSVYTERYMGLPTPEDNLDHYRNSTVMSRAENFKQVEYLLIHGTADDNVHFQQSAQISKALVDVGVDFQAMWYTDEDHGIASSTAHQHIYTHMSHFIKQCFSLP

On to `C[C@H](N)C(=S)N1CCC[C@H]1B(O)O` [Ala-boroPro Thioxamide], for which the half-life in data set [1] came out at 60 min; on DPPIV [2], 47 min.
With `C[C@H](N)C(=O)N1CCC[C@H]1B(O)O` [Ala-boroPro, reference compound], the half-life in data set [1] came out at 30 min.
Take `N[C@@H](CCC(=O)O)C(=S)N1CCC[C@H]1B(O)O` [Glu-boroPro Thioxamide]: the “DPPIV Ratio” value at DPPIV [3] was 190. In addition, the IC50 at DPPIV [3] (setting [4]) amounted to 4.6 nM; at DPPIV [3] (setting [5]), 890 nM; at DP8 (pH 2, read-out: IC50s DP8 pH 2), 16 nM; on DP8 (setting [6]), 2000 nM; at DP9 (pH 2, read-out: IC50s DP9 pH 2), 8.7 nM; at DP9 (setting [7]), 1800 nM. Besides, the IC50 amounted to 4.6 nM at DP-IV (setting [8]) and 890 nM at DP-IV (setting [9]). Further, the “DP8 Ratio” value at DP8 came to 130. Besides, the “Ratio DPP8 to DPIV (pH 2)” value at DP8 (pH 2) was 3.4. Moreover, on DP9, the “DP9 Ratio” value is listed as 180. On DP9 (pH 2), the “Ratio DP9 To DPIV (pH 2)” value was 1.9. The “Inactivation Index” value on DP-IV was 190.
In the case of `OB(O)[C@@H]1CCCN1C(=S)[C@@H]1CCCN1` [Pro-boroPro Thioxamide], the IC50 on DPPIV [3] (setting [4]) came to 0.75 nM; on DP8 (pH 2, read-out: IC50s DP8 pH 2), 2.5 nM; at DP8 (setting [6]), 1800 nM; on DP9 (pH 2, read-out: IC50s DP9 pH 2), 1.9 nM; on DP9 (setting [7]) it was 340 nM; at DP-IV (setting [8]), 6.4 nM. In addition, the IC50 at DP-IV (setting [9]) came to 7000 nM. In addition, the “DP8 Ratio” value on DP8 is 720. Further, at DP8 (pH 2), the “Ratio DPP8 to DPIV (pH 2)” value worked out at 3.2. Moreover, at DP9, the “DP9 Ratio” value turned out to be 180. For the same compound, at DP9 (pH 2), the “Ratio DP9 To DPIV (pH 2)” value was determined as 2.5. Further, on DP-IV, the “Inactivation Index” value is on record as 1,100.
As for Pro-boroAla (thioxam), the “DPPIV Ratio” value on DPPIV [3] stood at 4.1. Besides, the IC50 at DPPIV [3] (setting [4]) turned out to be 76 nM; on DPPIV [3] (setting [5]), 310 nM; on DP8 (pH 2, read-out: IC50s DP8 pH 2), 140 nM; at DP8 (setting [6]), 310 nM; at DP9 (pH 2, read-out: IC50s DP9 pH 2), 85 nM; at DP9 (setting [7]) it was 110 nM. Also, the “DP8 Ratio” value at DP8 is 2.2. Besides, the “Ratio DPP8 to DPIV (pH 2)” value at DP8 (pH 2) amounted to 1.8. The “DP9 Ratio” value on DP9 is 1.3. For the same compound, at DP9 (pH 2), the “Ratio DP9 To DPIV (pH 2)” value is on record as 1.1.
